Laboratory results taken from patent US12486246B2, “Replication protein A (RPA)-DNA interaction inhibitors” (THE TRUSTEES OF INDIANA UNIVERSITY, priority 2019, dated 2025).

Tests used:
[1] = biological target: T1, RPA DBD-A/B construct (His6-RPA181-422 of RPA70) (Homo sapiens, UniProt P27694); assay: EMSA, binding of RPA DBD-A/B construct to DNA; conditions: mean ± SD, read-out: RPAA/B IC50
T1 construct: The DBD-A/B construct was expressed as a His6-RPA181-422 fusion protein; His6 (N); made in house; host or cells: E. coli BL21 (DE3)
T1 sequence (P27694 181-422): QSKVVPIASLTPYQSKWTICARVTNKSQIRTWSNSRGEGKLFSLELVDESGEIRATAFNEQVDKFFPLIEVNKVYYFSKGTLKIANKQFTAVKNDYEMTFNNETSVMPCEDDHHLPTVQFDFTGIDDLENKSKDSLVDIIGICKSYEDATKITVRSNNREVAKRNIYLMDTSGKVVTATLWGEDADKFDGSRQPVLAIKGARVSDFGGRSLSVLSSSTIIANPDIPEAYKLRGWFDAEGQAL
Method: (§1) Full length, heterotrimeric human RPA (fl-RPA) and DBD-A/B constructs were expressed and purified according to previously described protocol. The DBD-A/B construct was expressed as a His6-RPA181-422 fusion protein. E. coli BL21 (DE3) cells in log growth were induced for 3 h with 0.5 mM IPTG at 37° C. The cells were lysed via sonication in buffer containing 20 mM Tris pH 7.5, 500 mM NaCl, 10 mM b-mercaptoethanol, supplemented with 25 μg/mL lysozyme, 1 μg/mL leupeptin, 1 μg/mL pepstatin and 0.5 mM PMSF. The lysate was applied to a 20 mL phosphocellulose column equilibrated in the same buffer and the flow-through material collected, brought to 5 mM Imidazole and loaded onto a 2 ml Ni-NTA column. The column was washed and proteins eluted on with a gradient from 50 mM to 500 mM imidazole. Fractions were assessed by EMSA and SDS-PAGE and DBD-A/B containing fraction were pool, dialyzed against buffer containing 50 mM HEPES pH 7.0, 500 mM NaCl and 1 mM DTT and stored at −80° C.
(§2) EMSAs were carried out using previously described procedure with the following modification. EMSA reactions (20 μL) were performed with 50 nM fl-RPA and 2.5 nM 5′ [^32P]-labeled 34-base DNA in buffer containing 20 mM HEPES (pH 7.8), 1 mM DTT, 0.001% NP-40, 50 mM NaCl. Chemical compounds were suspended in DMSO and DMSO concentration in the reaction mixture was kept constant at 2% or below 5%. RPA was incubated with inhibitor or DMSO control in reaction buffer for 30 min before the addition of DNA. Reactions were incubated for 5 min at room temperature and products separated via 6% native polyacrylamide gel electrophoresis. The bound and unbound fractions were then quantified by phosphor-imager analysis using ImageQuant software (Molecular Dynamics, CA) and IC50 values calculated by non-linear regression using SigmPlot (Sysat). For EMSA reactions with RPA DBD-A/B, 150 nM DBD-A/B was used, and electrophoresis was performed at 4° C. All other conditions were identical to those described for the full-length RPA.
These domains are compact modular domains populated with hydrophobic and basic DNA binding amino acid residues and have great potential to influence binding of the compounds to the RPA70 subunit. RPA DBD-A/B construct was purified via Ni-affinity chromatography. The activity of compounds 23-27 was evaluated on purified DBD-A/B construct using EMSA.

[2] = tested on: sonicated salmon sperm DNA; assay: Fluorescent intercalator displacement (FID) assay, SYBR-Green; format: binding; conditions: 25 mM MOPS pH 6.5
Method: The analysis of compound interactions with DNA was determined by inhibition of SYBR-Green intercalation into DNA as we have previously described. Briefly, reactions were performed in 25 mM MOPS (pH 6.5) containing sonicated salmon sperm DNA (8.29 ng/μL), SYBR-Green, and the indicated concentrations of RPA inhibitors. Reactions were conducted in black 96-well plates. Doxorubicin, a known noncovalent DNA binding chemotherapeutic, was used as a positive control. Fluorescence was measured using a BioTek® Synergy™ H1 hybrid multi-mode microplate reader with an excitation wavelength of 485 nm, emission wavelength of 528 nm, and a read height of 7 mm. Data were collected using BioTek® Gen5™ reader software. Reactions were incubated a maximum of 5 min before measurements were collected.
(§3) In order to probe the potential role of DNA intercalation as a mechanism for RPA inhibition, compounds 19, 23, 26, 27, 43 and 45 were analyzed using FID assay along with doxorubicin (Dox) as a positive control. […] In addition, direct binding of 9 derivatives to the target protein was assessed using a differential scan fluorimetry (DSF) assay. This assay assesses the melting profile of a protein at increasing temperatures via fluorescent dye binding. The direct interaction of a small molecule to the target protein can either increase or decrease the melting temperature (Tm) of the target depending on the specific protein and their interactions. […] Heparin sulfate, a known RPA interacting molecule often used in the purification of the protein was used as a control. […] (data not shown). […] (FIG. 1B).

[3] = biological target: T2, full length heterotrimeric human RPA (Homo sapiens, UniProt P27694); assay: Electrophoretic mobility shift assay (EMSA), binding of full length human RPA to ssDNA; conditions: for IC50: full length human RPA binding to DNA, mean ± SD of minimum triplicate experiments
T2 construct: Full length, heterotrimeric human RPA (fl-RPA) and DBD-A/B constructs were expressed and purified; made in house
T2 sequence (P27694 whole entry): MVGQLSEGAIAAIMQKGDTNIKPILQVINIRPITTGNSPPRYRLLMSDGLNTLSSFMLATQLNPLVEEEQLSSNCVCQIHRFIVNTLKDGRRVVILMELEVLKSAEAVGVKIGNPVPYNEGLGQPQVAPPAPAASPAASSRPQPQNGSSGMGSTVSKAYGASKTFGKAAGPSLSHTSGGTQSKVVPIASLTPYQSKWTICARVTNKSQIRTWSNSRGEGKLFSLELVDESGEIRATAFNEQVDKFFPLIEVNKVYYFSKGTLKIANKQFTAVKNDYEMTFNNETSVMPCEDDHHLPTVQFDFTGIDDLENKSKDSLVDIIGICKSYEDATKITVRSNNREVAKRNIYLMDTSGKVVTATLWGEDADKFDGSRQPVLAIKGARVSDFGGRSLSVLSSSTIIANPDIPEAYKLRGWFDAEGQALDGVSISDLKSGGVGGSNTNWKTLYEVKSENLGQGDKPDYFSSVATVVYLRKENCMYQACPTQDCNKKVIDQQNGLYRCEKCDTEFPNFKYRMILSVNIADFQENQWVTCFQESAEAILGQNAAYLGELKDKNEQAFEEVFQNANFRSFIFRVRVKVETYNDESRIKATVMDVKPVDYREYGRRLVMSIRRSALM
T2 sequence (P15927 whole entry partner): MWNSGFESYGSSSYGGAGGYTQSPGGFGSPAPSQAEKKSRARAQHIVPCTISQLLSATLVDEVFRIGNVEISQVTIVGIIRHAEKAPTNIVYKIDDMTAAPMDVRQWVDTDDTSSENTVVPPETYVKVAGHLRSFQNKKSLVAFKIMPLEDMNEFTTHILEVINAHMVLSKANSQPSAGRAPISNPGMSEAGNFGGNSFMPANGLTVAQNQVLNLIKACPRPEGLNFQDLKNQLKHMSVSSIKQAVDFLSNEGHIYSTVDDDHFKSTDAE
T2 sequence (P35244 whole entry partner): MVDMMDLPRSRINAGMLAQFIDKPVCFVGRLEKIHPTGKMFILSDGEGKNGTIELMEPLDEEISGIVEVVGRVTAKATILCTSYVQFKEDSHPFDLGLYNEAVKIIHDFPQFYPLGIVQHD
Method: as §1, §2
Purified full length heterotrimeric human RPA protein was used to screen a series of analogs in an electrophoretic mobility shift assay (EMSA) measuring direct binding to a ss-DNA substrate. Quantification of the EMSA data and additional concentration dependent analysis to measure IC50 values of newly synthesized analogs provided potential insight into the structure-activity relationships (Table 1 and 2). […] Fluorine and trifluoromethyl substituents were included in pyridinyl compounds 28-29.

[4] = Aqueous solubility in unbuffered water; format: physicochemical; conditions: 43, 44, 45, 46, 47 vs 9, 16, 26, 28, 29 respectively
Method: Aqueous solubility was determined by suspending compound in un-buffered water with stirring. Insoluble material was removed by sedimentation or filtration and soluble compound quantified by absorbance spectroscopy and LC/MS. pH dependence was determined by suspending compound in 10 mM citrate buffer at pH 4.0 or 10 mM phosphate […] as described above in the description.
The morpholine ring is commonly introduced into solvent exposed regions as a privileged solubilizing group to improve solubility or pharmacokinetic properties including metabolic stability of a prospective drug scaffold which is exemplified by many FDA approved drugs. Modifications on Ring A had less of an effect than the morpholino modifications at the alkyl carboxylic acid side chain. To determine the effect of pH on solubility, we prepared solution at 1 mM in citrate buffer at pH 4, phosphate buffer at pH 7 and carbonate buffer at pH 9.5.

[5] = biological target: T3, RPA-AB construct (RPA70 AB domain) (Homo sapiens, UniProt P27694); assay: Differential scanning fluorimetry (DSF); format: binding
T3 construct: The DBD-A/B construct was expressed as a His6-RPA181-422 fusion protein; His6 (N); made in house; host or cells: E. coli BL21 (DE3)
T3 sequence (P27694 181-422): as the sequence (P27694 181-422) above
Method: as §3
The interaction of compound 43 with RPA-AB constructs was performed by differential scanning fluorimetry using GloMelt™ Dye (Biotum). […] Reactions were run in an ABI 7500 real time PCR machine with temperature increasing from 25° C. to 99° C. at a 2% ramp (˜40 minutes) and fluorescence of the reporter was measured on the SYBR® Green setting. […] Data was uploaded to TSA-CRAFT software and Tm calculated as described by Lee et al. Heparin was employed as a positive control of binding to the AB-box of RPA.

Row | Compound | IC50 [1] | DNA binding activity (displacement of SYBR-Green intercalator) [2] | fold increase in activity compared to compound 22 ([3]; full length RPA) | IC50 [3] | aqueous solubility compared to carboxylic acid counterpart (in words) [4] | decrease in Tm [5]
1 | CCOc1ccc2cc(C3CC(c4ccc(-c5ccco5)cc4)=NN3C(=O)CCCC(=O)O)c(Cl)nc2c1 (centres unmarked) [Compound 23, 5-(5-(2-Chloro-7-ethoxyquinolin-3-yl)-3-(4-(furan-2-yl)phenyl)-4,5-dihydro-1H-pyrazol-1-yl)-5-oxopentanoic acid] | 3.3 ± 0.07 µM | No significant DNA binding activity | ~3.2 fold | 2.1 ± 0.48 µM | – | –
2 | CCOc1ccc2cc(C3CC(c4ccc(-c5cnoc5)cc4)=NN3C(=O)CCCC(=O)O)c(Cl)nc2c1 (centres unmarked) [Compound 24, 5-(5-(2-Chloro-7-ethoxyquinolin-3-yl)-3-(4-(isoxazol-4-yl)phenyl)-4,5-dihydro-1H-pyrazol-1-yl)-5-oxopentanoic acid] | 4.03 ± 0.28 µM | – | – | 1.71 ± 0.28 µM | – | –
3 | CCOc1ccc2cc(C3CC(c4ccc(-c5ccc(N6CCOCC6)cc5)cc4)=NN3C(=O)CCCC(=O)O)c(Cl)nc2c1 (centres unmarked) [Compound 25, 5-(5-(2-Chloro-7-ethoxyquinolin-3-yl)-3-(4′-morpholino-[1,1′-biphenyl]-4-yl)-4,5-dihydro-1H-pyrazol-1-yl)-5-oxopentanoic acid] | 16.4 ± 2.09 µM | – | – | 3.14 ± 0.23 µM | – | –
4 | CCOc1ccc2cc(C3CC(c4ccc(-c5ccc(Br)nc5)cc4)=NN3C(=O)CCCC(=O)O)c(Cl)nc2c1 (centres unmarked) [Compound 27, 5-(3-(4-(6-Bromopyridin-3-yl)phenyl)-5-(2-chloro-7-ethoxyquinolin-3-yl)-4,5-dihydro-1H-pyrazol-1-yl)-5-oxopentanoic acid] | 3.32 ± 0.016 µM | No significant DNA binding activity | – | 1.01 ± 0.6 µM | – | –
5 | CCOc1ccc2cc(C3CC(c4ccc(-c5ccc(Cl)nc5)cc4)=NN3C(=O)CCCC(=O)NCCCN3CCOCC3)c(Cl)nc2c1 (centres unmarked) [Compound 45, 5-(5-(2-Chloro-7-ethoxyquinolin-3-yl)-3-(4-(6-chloropyridin-3-yl)phenyl)-4,5-dihydro-1H-pyrazol-1-yl)-N-(3-morpholinopropyl)-5-oxopentanamide] | – | No significant DNA binding activity | – | 4.06 ± 0.56 µM | increased solubility | –
6 | CCOc1ccc2cc(C3CC(c4ccc(-c5ccc(C(F)(F)F)nc5)cc4)=NN3C(=O)CCCC(=O)NCCCN3CCOCC3)c(Cl)nc2c1 (centres unmarked) [Compound 47, 5-(5-(2-Chloro-7-ethoxyquinolin-3-yl)-3-(4-(6-(trifluoromethyl)pyridin-3-yl)phenyl)-4,5-dihydro-1H-pyrazol-1-yl)-N-(3-morpholinopropyl)-5-oxopentanamide] | – | – | – | 5.85 ± 0.39 µM | increased solubility | –
7 | heparin [reference compound] | – | – | – | – | – | 1.2 °C
